# Positions of bridges follow the written chain, without caps; N, C: chain ends.
# Experiments:
# [1] = tested on: anti-β1-ECII antibodies; assay: ELISA-competition assay: peptide preincubated with sera/IgG of immunized antibody-positive rats, linear 25AA Cys/Cys-peptide as antigen; assay type: binding, rat; conditions: n=6 sera; incubation 12-14 h, 4° C.; mean ±SEM (FIG. 27)
# Procedure: FIG. 9 is a diagram composed of two major-(upper and lower) panels resuming the blocking effect of both 25AA- and 18AA-cyclopeptide mutants having a Gln closure site, as well as 18AA cyclopeptide mutants having a D-Glu closure site after preincubation (12 h, 4° C., rotating incubation) with sera isolated from 69 different immunized antibody-positive rats in an ELISA-competition assay using the 3 Cys-containing linear 25AA Cys/Cys-peptide as an antigen. The upper panel depicts rat sera preferentially reacting with the Cys/Ser mutated cyclopeptides (type1 reaction, n=64), separated in cyc25AA(Gln)-peptides (left) and cyc18AA(Gln and D-Glu)-peptides (right). The lower panel depicts the rat sera reacting with both the Cys/Ser and the Ser/Cys mutated cyclopeptides (type2 reaction, n=5), again separated in the results obtained with cyc25AA(Gln)-peptides (left) and cyc18AA(Gln and D-Glu)-peptides (right).
# FIG. 11 is a diagram resuming the dose-dependent (x-axis, abscissa: fold molar excess of specific peptides) blocking capacity of various linear and cyclic beta1-ECII-peptides given in % of the unblocked antibody-titer (y-axis, ordinate), including 25AA Cys/Cys linear peptides (black squares), 25AA Cys/Ser cyclopeptide mutants (white squares), 18AA Cys/Cys cyclo-peptides (black diamonds), 18AA Cys/Ser cyclopeptide mutants (white diamonds), and 18AA Cys/Ser linear peptide mutants (vertically hatched diamonds) in an ELISA competition assay performed with sera from n=6 randomly chosen immunized antibody-positive rats.
# FIGS. 27A and B depict the in vitro blocking (=neutralization) capacity of various cysteine-containing cyclopeptide variants of the second extracellular loop (ECII) of the human beta1-adrenergic receptor, determined by testing n=6 individual sera (27A) of immunized beta1-ECII-antibody-positive rats after over-night incubation with the indicated cyclopeptides (12-14 h, 4° C.) by ELISA. Columns in 27A represent the receptor-antibody blocking efficiency of the indicated cyclopeptides in % of the antibody-(ELISA-)signals obtained with unblocked antibody-positive rat sera. Columns in 27B represent the mean blocking efficiency for each cyclopeptide, error bars indicate ±SEM.
# The blocking capacity of β1-ECII-18AA cyclopeptide mutants (Cys13-Ser14 or Ser13-Cys14 mutation having an additional D-Glu-Gln exchange, e.g. at the ring closure site) was compared with the 3 Cys-containing 25AA or 18AA Cys/Cys cyclopeptides after preincubation (12 h, 4° C., rotating incubation over-night) of different numbers of sera from immunized antibody-positive rats in an ELISA-competition assay using the 3 Cys-containing linear 25AA Cys/Cys-peptide as an antigen. FIGS. 4, 5, and 7-10 show the results from measurements performed with sera of n=12 up to n=82 immunized antibody-positive rats using different cyclopeptides of the present invention.
# [2] = tested on: beta1-ECII receptor antibody-titers; assay: in vivo therapy study cyc22AA versus cyc18AA Cys/Ser in rats immunized over 8 months: antibody-titers; set-up: species or system rat; conditions: injections every 4 weeks, start at month 8; mean ±SEM (FIG. 28A)
# Excerpt: FIGS. 28A and B depict the in vivo blocking (=neutralization) capacity of two cysteine-containing 18AA or 22AA cyclopeptide-mutants of the second extracellular loop (ECII) of the human beta1-adrenergic receptor upon therapeutic injection of the different constructs into rats regularly immunized since 8 months (first=basic immunization followed by 7 antigen-boosts every 4 weeks). The effects of four to five subsequent cyclopeptide-injections every 4 weeks are shown. FIG. 28A depicts the mean values±SEM of each of the treated groups of immunized beta1-ECII-antibody positive cardiomyopathic rats (animal number per group is given in the legend). […] The remaining receptor antibody-titers after each injection in % of the antibody-titers at start therapy (month 8) are depicted (columns). Error bars indicate ±SEM. Numbers in columns indicate the number of (subsequent) monthly injection.
# FIG. 28B depicts the time course of antibody-titers after 4 subsequent cyclopeptide-injections, determined before and 20-22 hours after application of the indicated constructs. Values are given in percent of increase or decrease in the respective antibody-titers after each cyclopeptide-injection compared with the antibody-titer determined at start of therapy (month 8). […]
# [3] = tested on: immunized beta1-ECII-antibody positive cardiomyopathic rats; assay: echocardiographic follow-up of the cyc22AA versus cyc18AA therapy study; assay type: in vivo, rat; conditions: after 4 months of treatment, 1.0 mg/kg Bw (FIG. 29)
# Excerpt: FIG. 29A is a diagram showing the time course (month 0 to 12) of the internal end-systolic and end-diastolic left ventricular diameters (LVES, LVED) of GST/beta1-ECII-immunized untreated (black circles) versus GST/beta1-ECII-immunized animals treated with the indicated various cyclopeptides (see legend) as determined by 2D- and M-mode echocardiography (echocardiographic system: Visual Sonics, Vevo 770 (version V2.2.3), equipped with a 15-17.5 MHz transducer), whereby LVES/LVED is left ventricular end-systolic diameter/left ventricular end-diastolic diameter.
# FIG. 29B is a diagram depicting the time course (month 0 to 12) of the “Cardiac index” (CI) in ml/min/g (body weight) as determined by 2D- and Doppler-echocardiography (echocardiographic system see above).
# In addition, echocardiographic follow-up data after 4 months of treatment also show a superiority of cyc22AA mutants compared with the cyc18AA Cys/Ser mutant regarding their cardioprotective effects in vivo, as assessed by the decrease in both left ventricular end-diastolic (LVED) and end-systolic (LVES) diameters (FIG. 29A), and an increase in “Cardiac Index” (CI, given in ml/min/g body weight; see FIG. 29B), as determined by 2 dimensional- and Doppler-echocardiography using a Visual Sonics echocardiographic system (Vevo 770, version V2.2.3), equipped with a 17.5 MHz transducer).
substance,measurement,setting,value
Cyclo-Arg-Ala-Glu-Ser-Asp-Glu-Ala-Arg-Arg-Cys-Tyr-Asn-Asp-Pro-Lys-Cys-Ser-Asp-Phe-Val-Thr-Gly (cyclo(RAESDEARRCYNDPKCSDFVTG); disulfide 10-16 (inferred)) [cyc22AA Cys/Ser],blocking-efficiency versus unblocked sera,[1],74.9±5.0%
same,antibody-titer remaining after 4 injections in percent of the titer at start of therapy,[2],9.0±2.2%
same,"cardioprotective effects in vivo (decrease in LVED and LVES diameters, increase in Cardiac Index)",[3],superiority
